This test deals with human AMPK (full-length γ1, β1 and α1 subunits) (Homo sapiens (Human), UniProt Q13131+Q9Y478). Description: AMPK in vitro biochemical assay (33P-based, SAMS peptide, PP2A dephosphorylation). The conditions noted are these: for pEC50: activation of phosphorylated AMPK, 33P-ATP, SAMS peptide, PP2A treatment, 4-parameter fit; for Emax / Maximum: counts as % of positive control wells (enzyme, allosteric activator or AMP, PP2A and substrate); for Emax: read-out: Maximum. The text has this:
We designed a tricistronic AMPK expression construct that included open reading frames encoding the full-length γ1, β1 and α1 subunits of human AMPK with a ribosome-binding site (RBS) ahead of each coding region and subcloned this into pET-14b expression vector (Novagen, Madison, Wis.) using standard molecular biology techniques. AMPK tricistronic construct was transformed into E. coli BL21-CodonPlus™ (DE3)-RIPL strain (Stratagene) and transformants were selected on LB (Luria-Bertani) agar plates containing ampicillin (100 μg/ml). […] Optical density sample measurements were made on an UltroSpec 2000 spectrophotometer (Pharmacia Biotech) at 600 nm. When the cell density reached ˜0.9 OD, the temperature was reduced to 18° C. and the culture was induced at 18° C. with 0.1 mM Isopropylthiogalactoside (IPTG). […] The cell pellets were aliquoted into four portions, flash frozen in liquid nitrogen and were stored at −80° C. until purification. For purification, frozen cell paste was thawed and resuspended in 50 ml lysis buffer (50 mM Tris, pH 8.0, 150 mM NaCl, 10% glycerol, 2 mM Tris-2-carboxyethyl phosphine (TCEP), 20 mM imidazole and 0.001% Triton X-100). After sonication, insoluble material was removed by centrifugation at 15,000 rpm in a Sorvall® RC5 plus centrifuge for 30 min at 4° C. and the supernatant was loaded onto a 5 ml HisTrap™ HP column (GE Healthcare, Piscataway, N.J.) and washed with five column volumes of lysis buffer. Bound proteins were eluted using an elution buffer containing 300 mM imidazole. Fractions containing AMPK subunits were pooled based on SDS-10% PAGE analysis and dialyzed overnight in dialysis buffer (50 mM Tris, pH 8.0, 150 mM NaCl, 10% glycerol, 2 mM TCEP, and 0.001% Triton X-100). […] The phosphorylated AMPK complex was re-purified on HisTrap™ HP column as before, dialyzed over night in dialysis buffer. The phosphorylated AMPK complex was further purified by gel filtration chromatography with a Superdex 200 HiLoad 16/60 column (GE Healthcare) in SEC buffer (50 mM Tris, pH 8.0, 150 mM NaCl, 10% glycerol, 2 mM TCEP, and 0.001% Triton X-100).
The harvest time (72 hours post infection) was indicated by percent cell viability (to 85-90%) and increased cell diameter (3-4 μm). […] For purification, the cell paste was resuspended in 500 mL lysis buffer (50 mM Tris pH 8.0, 150 mM NaCl, 25 mM imidazole, 10% glycerol, 2 mM MgCl2, 2 mM TCEP+protease inhibitor cocktail. After lysis, cellular debris was removed by centrifugation at 36K×g for 1 hour. The resulting supernatant was filtered at 0.2 micron before applying to a 1 mL nickel charged IMAC column (HisTrap, GE). The bound resin was washed to baseline with 50 CV of 50 mM Tris pH 8.0, 150 mM NaCl, 25 mM imidazole, 10% glycerol, 2 mM MgCl2, 2 mM TCEP before eluting over a 20 CV gradient to 100% with wash buffer containing 500 mM imidazole. Pooled fractions containing PP2A were combined and diluted 10× with 50 mM Tris pH 8.0, 10% glycerol, 1 mM TCEP and applied to a 1 mL AIEX resin (HiTrap QFF, GE). The bound resin was washed with dilution buffer and PP2A was eluted over a 20 CV gradient to 100% 50 mM Tris pH 8.0, 500 mM NaCl, 10% glycerol, 1 mM TCEP and was further diluted 1:1 with 50 mM Tris pH 8.0, 150 mM NaCl, 10% glycerol, and 1 mM TCEP buffer.
The biochemical EC50 (half-maximal concentration required for full activation) of compounds for the activation of AMPK was evaluated by ^33P-based assay using SAMS peptide (commercially available) derived from ACC-1. Twenty μl of phosphorylated AMPK diluted in assay buffer, (50 mM HEPES, 1 mM EGTA, 10 mM MgCl2, 0.25 mM DTT, 0.01% Tween-20, 0.01% BSA (pH 7.5)) was added to 384 well plates containing 1 μL of test compound. Following a fifteen minute room temperature incubation, 10 μL of protein phosphatase PP2A was added to the plate to dephosphorylate pThr172 of AMPK. […] The reaction was terminated after 60 minutes incubation at room temperature by the addition of 15 μL of 2% H3PO4.

Molecules are shown by their SMILES. pEC50: −log10 of the molar value.

Chain of human AMPK (full-length γ1, β1 and α1 subunits) (Q13131 whole entry): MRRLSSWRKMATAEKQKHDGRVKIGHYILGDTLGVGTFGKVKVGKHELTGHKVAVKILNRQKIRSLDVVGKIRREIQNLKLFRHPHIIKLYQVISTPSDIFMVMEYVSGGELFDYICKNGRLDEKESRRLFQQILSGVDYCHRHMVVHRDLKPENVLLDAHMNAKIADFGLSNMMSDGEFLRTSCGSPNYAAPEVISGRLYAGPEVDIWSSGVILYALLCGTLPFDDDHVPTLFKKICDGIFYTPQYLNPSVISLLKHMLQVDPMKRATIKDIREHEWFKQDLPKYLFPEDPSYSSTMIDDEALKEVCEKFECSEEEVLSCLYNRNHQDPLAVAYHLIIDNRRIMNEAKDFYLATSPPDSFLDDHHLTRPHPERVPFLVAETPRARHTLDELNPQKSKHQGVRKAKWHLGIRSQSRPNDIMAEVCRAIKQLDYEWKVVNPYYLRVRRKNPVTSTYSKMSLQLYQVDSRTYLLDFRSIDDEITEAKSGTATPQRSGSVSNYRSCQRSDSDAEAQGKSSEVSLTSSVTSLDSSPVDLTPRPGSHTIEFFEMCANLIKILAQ
Chain of human AMPK (full-length γ1, β1 and α1 subunits) (Q9Y478 whole entry): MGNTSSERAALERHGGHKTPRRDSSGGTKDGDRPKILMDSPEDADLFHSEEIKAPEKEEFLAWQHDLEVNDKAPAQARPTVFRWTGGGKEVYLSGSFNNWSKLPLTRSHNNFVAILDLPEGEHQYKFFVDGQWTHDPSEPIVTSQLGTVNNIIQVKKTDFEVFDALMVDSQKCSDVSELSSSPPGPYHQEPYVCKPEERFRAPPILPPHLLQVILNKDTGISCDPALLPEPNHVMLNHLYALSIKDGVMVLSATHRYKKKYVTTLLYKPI
Chain of human AMPK (full-length γ1, β1 and α1 subunits) (P54619 whole entry partner): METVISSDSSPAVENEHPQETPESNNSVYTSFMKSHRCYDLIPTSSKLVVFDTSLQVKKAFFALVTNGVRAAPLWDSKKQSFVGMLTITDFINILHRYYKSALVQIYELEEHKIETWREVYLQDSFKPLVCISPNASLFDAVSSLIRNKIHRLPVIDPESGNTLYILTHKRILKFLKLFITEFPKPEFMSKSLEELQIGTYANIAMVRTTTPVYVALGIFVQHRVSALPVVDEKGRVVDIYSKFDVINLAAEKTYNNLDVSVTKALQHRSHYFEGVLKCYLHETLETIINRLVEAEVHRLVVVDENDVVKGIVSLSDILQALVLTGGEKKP

As for `COC(=O)N1CCC(c2ccc(-c3cc4c(C(=O)O)c[nH]c4cc3Cl)cc2)C1` (racemic) [Example 14, 6-chloro-5-{4-[1-(methoxycarbonyl)pyrrolidin-3-yl]phenyl}-1H-indole-3-carboxylic acid], the pEC50 (usually −log10 of the EC50, conventionally taken in molar units) was 6.82 and the Emax was 100%. With `O=C(O)c1c[nH]c2cc(Cl)c(-c3ccc(O[C@@H]4CCC[C@H]4O)cc3)cc12` (racemic) [Example 38, (±)-6-chloro-5-(4-{[trans-2-hydroxycyclopentyl]oxy}phenyl)-1H-indole-3-carboxylic acid], the pEC50 is 6.97 and the Emax is 93%. In the same order, the values of `O=C(O)c1n[nH]c2cc(Cl)c(-c3ccc(C4CCOC4)cc3)cc12` (racemic) [Example 124, (±)-6-Chloro-5-(4-(tetrahydrofuran-3-yl)phenyl)-1H-indazole-3-carboxylic acid] are 7.03 and 93%.

As for `COC(=O)N1CCC(c2ccc(-c3cc4c(C(=O)O)c[nH]c4cc3Cl)cc2)C1` (single isomer, unassigned) [Example 14A, 6-chloro-5-{4-[1-(methoxycarbonyl)pyrrolidin-3-yl]phenyl}-1H-indole-3-carboxylic acid], the negative logarithm of the EC50 (pEC50) was 7.00 and the Emax is 101%. `COC(=O)N1CCC(c2ccc(-c3cc4c(C(=O)O)c[nH]c4cc3Cl)cc2)C1` (single isomer, unassigned) [Example 14B, 6-chloro-5-{4-[1-(methoxycarbonyl)pyrrolidin-3-yl]phenyl}-1H-indole-3-carboxylic acid] gave a negative logarithm of the EC50 (pEC50) of 6.93 and a Maximum of 91%. With `O=C(O)c1c[nH]c2cc(F)c(-c3ccc(C4CCCO4)cc3)cc12` (single isomer, unassigned) [Example 150, 6-fluoro-5-[4-(tetrahydrofuran-2-yl)phenyl]-1H-indole-3-carboxylic acid], the negative logarithm of the EC50 (pEC50) was 6.78 and the Emax was determined as 112%. For `O=C(O)c1c[nH]c2cc(F)c(-c3ccc(C4CCCO4)cc3)cc12` (single isomer, unassigned) [Example 151, 6-fluoro-5-[4-(tetrahydrofuran-2-yl)phenyl]-1H-indole-3-carboxylic acid], the pEC50 is 7.42 and the Maximum is 103.8%. In turn, `O=C(O)c1c[nH]c2cc(F)c(-c3ccc(C4CCCO4)cc3)c(F)c12` (single isomer, unassigned) [Example 152, 4,6-difluoro-5-[4-(tetrahydrofuran-2-yl)phenyl]-1H-indole-3-carboxylic acid] showed a negative logarithm of the EC50 (pEC50) of 7.78. Take `O=C(O)c1c[nH]c2cc(F)c(-c3ccc(C4CCCO4)cc3)c(F)c12` (single isomer, unassigned) [Example 153, 4,6-difluoro-5-[4-(tetrahydrofuran-2-yl)phenyl]-1H-indole-3-carboxylic acid]: the pEC50 is 6.86. The molecule `O=C(O)c1c[nH]c2cc(Cl)c(-c3ccc(C4CCCO4)cc3)cc12` (single isomer, unassigned) [Example 154, 6-chloro-5-[4-(tetrahydrofuran-2-yl)phenyl]-1H-indole-3-carboxylic acid] showed a negative logarithm of the EC50 (pEC50) of 7.55 and a Maximum of 104.8%. In the same order, the values of `O=C(O)c1c[nH]c2cc(Cl)c(-c3ccc(C4CCCO4)cc3)cc12` (single isomer, unassigned) [Example 155, 6-chloro-5-[4-(tetrahydrofuran-2-yl)phenyl]-1H-indole-3-carboxylic acid] are 7.32 and 126.9%. In the same order, the values of `O=C(O)c1c[nH]c2cc(F)c(-c3ccc(C4CCCCO4)cc3)cc12` (single isomer, unassigned) [Example 171, 6-fluoro-5-[4-(tetrahydro-2H-pyran-2-yl)phenyl]-1H-indole-3-carboxylic acid] are 7.48 and 69.2%.

The record behind these values is US9394285B2 (Pfizer Inc., priority 2013, dated 2016).
